Data taken from US20250312271A1, “GSK-3-BETA INHIBITOR-LOADED POLYMERIC SCAFFOLDS FOR THE TREATMENT OF MUSCLE INJURIES” (Rutgers, The State University of New Jersey, priority 2024, published 2025).
Entries after “also recorded” stand apart in the source; their conditions may differ.

Tests used:
[1] = test system: human skeletal muscle cells (hSkMCs); experiment: Morphological assessment of lipid droplets in hSkMCs cultured with scaffolds; format: cell-based; settings: drug in both GelMA and PLGA layers
Protocol: Human skeletal muscle cells ([…]) (5,000 cells/cm^2) were cultured in ADM and myogenic differentiation media (myodiff) with scaffolds at 200 rpm, with and without the drug in GelMA and PLGA layers to evaluate the relationship between drug concentrations and lipid formation resulting from the drug's release from the scaffold. PrestoBlueTM assay assessed cell viability.

[2] = test system: bone marrow-derived human mesenchymal stem cells (hMSCs); experiment: Oil Red O quantification of lipid formation in adipogenic hMSC cultures; format: cell-based
Protocol: (§1) Rosiglitazone (AVANDIA®) was added to the adipogenic medium at a final concentration of 1 μM before use. A PrestoBlue™ assay and a LIVE/DEAD viability/cytotoxicity kit were utilized to assess cell viability. Live and dead cell counts were obtained using a Celigo Image Cytometer. Cells were fixed in 4% PFA (paraformaldehyde) and stained with Oil Red O to measure lipid formation as a sign of adipocyte differentiation. Lipid formation was quantified by assessing the absorbance of Oil Red O at 515 nm.

hMSCs [3] = experiment: PrestoBlue assay of hMSCs; format: cell-based, human; settings: day 7, 14, 18, 0.5, 1.0, 1.5 μM
Protocol: as §1

[4] = test system: adipose-derived stem cells (ADSCs); experiment: Oil Red O quantification of lipid formation in adipogenic ADSC cultures; format: cell-based
Protocol: as §1

ADSCs [5] = experiment: Live/Dead quantification of ADSCs; format: cell-based
Protocol: as §1

3T3-L1 preadipocytes = settings: cited from earlier work
[6] = CHIR99021 release from polymeric scaffolds (HPLC); format: physicochemical
Protocol: In this study, GSK3β inhibitor-loaded scaffolds were fabricated via electrospinning and hydrogel formation. Pluronic F127 (0.08 g) was dissolved in 1.0 ml hexafluoroisopropanol (HFP) before adding the GSK3β inhibitor. Separately, poly(lactic-co-glycolic acid) PLGA (50:50) (16%, w/v) was dissolved in HFP. The polymer solutions (PLGA/CHIR-F127 or PLGA/CHIR) were electrospun at a flow rate of 1.0 ml/h with a 14 cm distance from the 18G needle tip to the cylindrical drum, and voltages +11/−2 kV were applied. Samples (13.5 mm diameter) punched out from scaffolds were immersed in GelMA (gelatin methacrylate) (5%, w/v)/CHIR solution for 20 seconds, then crosslinked using Lithium Phenyl (2,4,6-Trimethylbenzoyl) Phosphinate (LAP, 0.5% w/v) for 2 minutes on each side under 405 nm UV. Scaffolds comprise a rapidly degrading layer of GelMA for inhibitor delivery to the injury site, and a slow-degrading layer of PLGA to provide prolonged support for tissue regeneration.
Samples were submerged in water on a plate shaker at 400 rpm, with 200 μL replaced by fresh water at each time point.

ADSCs [7] = experiment: PrestoBlue assay of ADSCs; format: cell-based; settings: day 7, 14, 21, 0.5, 1.0, 1.5 μM
Protocol: as §1

PPARγ = settings: 3T3-L1 preadipocytes; cited from earlier work
hMSCs [8] = experiment: Live/Dead quantification of hMSCs; format: cell-based, human; settings: day 7, 14, 18, 0.5, 1.0, 1.5 μM
Protocol: as §1

Cc1cnc(-c2cnc(NCCNc3ccc(C#N)cn3)nc2-c2ccc(Cl)cc2Cl)[nH]1 [CHIR99021]
lipid droplet suppression, CHIR99021 in both GelMA and PLGA layers [1]: enhances this effect
difference in lipid formation in groups treated with CHIR99021 ([2]; hMSCs at 18 day, One-Way ANOVA, P=0.0000018): significant difference
lipid droplet formation (Oil Red O) ([2]; hMSCs in ADM, CHIR99021 0.5, 1.0, 1.5 μM): decreases
cellular metabolic activity (PrestoBlue) (hMSCs [3]): does not negatively alter
difference in lipid formation in groups treated with CHIR99021 ([4]; ADSCs at 21 days, One-Way ANOVA, P=0.00003): significant difference
lipid droplet formation (Oil Red O) ([4]; ADSCs in ADM, CHIR99021 0.5, 1.0, 1.5 μM): decreases; also recorded: inhibited lipid formation
viability (Live/Dead) (ADSCs [5]; day 7, 14, 21, 0.5, 1.0, 1.5 μM): does not negatively alter
percent of dead cells, ADSCs in GM versus in 1.5 μM CHIR (ADSCs [5]; day 21, 1.5 μM CHIR): No significant difference
differentiation of 3T3-L1 preadipocytes (Oil Red O staining) (3T3-L1 preadipocytes): blocked the differentiation
release kinetics profile ([6]; from polymeric scaffolds (PLGA nanofibers), in water): first-order
release ([6]; within 72 hours, from polymeric scaffolds): ~70%
cellular metabolic activity (PrestoBlue) (ADSCs [7]): does not negatively alter
PPARγ expression (PPARγ): induced
viability (Live/Dead) (hMSCs [8]): does not negatively alter
